Reference: the kinase profiling compilation of Christmann-Franck et al. (2016)

Assays:
Test in all cases: KINOMEscan competition binding
Settings in all cases: compound 10.0 µM
ROS1 (human) = ROS1 (human) (UniProt P08922)
CSNK1E (human) = CSNK1E (human) (UniProt P49674)
[1] = system: EGFR (human), P00533 [A750P; 747-749 del]
BLK (human) = BLK (human) (UniProt P51451)
[2] = system: FLT3 (human), P36888 [D835Y]
MAPK3 (human) = MAPK3 (human) (UniProt P27361)
ULK1 (human) = ULK1 (human) (UniProt O75385)
CDKL2 (human) = CDKL2 (human) (UniProt Q92772)
YES1 (human) = YES1 (human) (UniProt P07947)
CDK19 (human) = CDK19 (human) (UniProt Q9BWU1)
PIK3CG (human) = PIK3CG (human) (UniProt P48736)
SNRK (human) = SNRK (human) (UniProt Q9NRH2)
STK38 (human) = STK38 (human) (UniProt Q15208)
CDK5 (human) = CDK5 (human) (UniProt Q00535)
PTK6 (human) = PTK6 (human) (UniProt Q13882)
FLT1 (human) = FLT1 (human) (UniProt P17948)
[3] = system: KIT (human), P10721 [A829P]
Sequence of KIT (human), P10721 [A829P] (P10721 whole entry A829P, looked up): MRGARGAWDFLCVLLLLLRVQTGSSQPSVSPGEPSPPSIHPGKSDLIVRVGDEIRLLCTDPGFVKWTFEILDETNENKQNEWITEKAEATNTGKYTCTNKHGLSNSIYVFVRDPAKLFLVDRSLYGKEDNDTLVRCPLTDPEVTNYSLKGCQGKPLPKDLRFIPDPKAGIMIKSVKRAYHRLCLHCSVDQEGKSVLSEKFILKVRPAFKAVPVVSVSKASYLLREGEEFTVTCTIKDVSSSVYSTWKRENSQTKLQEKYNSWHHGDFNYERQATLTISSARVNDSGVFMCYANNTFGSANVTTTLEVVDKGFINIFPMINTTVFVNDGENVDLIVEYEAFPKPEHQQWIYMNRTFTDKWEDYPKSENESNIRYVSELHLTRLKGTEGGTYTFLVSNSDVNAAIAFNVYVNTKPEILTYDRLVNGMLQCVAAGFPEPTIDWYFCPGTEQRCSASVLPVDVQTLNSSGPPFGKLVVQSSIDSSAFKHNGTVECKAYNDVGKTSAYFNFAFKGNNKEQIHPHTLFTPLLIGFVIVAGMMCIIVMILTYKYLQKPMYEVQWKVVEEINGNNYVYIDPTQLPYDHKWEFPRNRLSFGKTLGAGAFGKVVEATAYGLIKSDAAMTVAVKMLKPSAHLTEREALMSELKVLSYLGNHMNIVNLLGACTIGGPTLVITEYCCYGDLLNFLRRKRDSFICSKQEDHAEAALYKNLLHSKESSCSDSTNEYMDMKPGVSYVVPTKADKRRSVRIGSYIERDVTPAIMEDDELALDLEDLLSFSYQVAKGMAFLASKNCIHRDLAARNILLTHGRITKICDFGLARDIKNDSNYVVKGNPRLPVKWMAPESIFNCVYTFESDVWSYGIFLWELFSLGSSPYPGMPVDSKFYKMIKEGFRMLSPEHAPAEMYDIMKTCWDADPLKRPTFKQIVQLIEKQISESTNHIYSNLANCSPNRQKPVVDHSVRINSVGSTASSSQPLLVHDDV

KDR (human) = KDR (human) (UniProt P35968)
STK17A (human) = STK17A (human) (UniProt Q9UEE5)
TNIK (human) = TNIK (human) (UniProt Q9UKE5)
CDK3 (human) = CDK3 (human) (UniProt Q00526)
INSR (human) = INSR (human) (UniProt P06213)
MTOR (human) = MTOR (human) (UniProt P42345)
AXL (human) = AXL (human) (UniProt P30530)
PIP4K2C (human) = PIP4K2C (human) (UniProt Q8TBX8)
SRPK3 (human) = SRPK3 (human) (UniProt Q9UPE1)
Sequence of SRPK3 (human) (Q9UPE1 whole entry, looked up): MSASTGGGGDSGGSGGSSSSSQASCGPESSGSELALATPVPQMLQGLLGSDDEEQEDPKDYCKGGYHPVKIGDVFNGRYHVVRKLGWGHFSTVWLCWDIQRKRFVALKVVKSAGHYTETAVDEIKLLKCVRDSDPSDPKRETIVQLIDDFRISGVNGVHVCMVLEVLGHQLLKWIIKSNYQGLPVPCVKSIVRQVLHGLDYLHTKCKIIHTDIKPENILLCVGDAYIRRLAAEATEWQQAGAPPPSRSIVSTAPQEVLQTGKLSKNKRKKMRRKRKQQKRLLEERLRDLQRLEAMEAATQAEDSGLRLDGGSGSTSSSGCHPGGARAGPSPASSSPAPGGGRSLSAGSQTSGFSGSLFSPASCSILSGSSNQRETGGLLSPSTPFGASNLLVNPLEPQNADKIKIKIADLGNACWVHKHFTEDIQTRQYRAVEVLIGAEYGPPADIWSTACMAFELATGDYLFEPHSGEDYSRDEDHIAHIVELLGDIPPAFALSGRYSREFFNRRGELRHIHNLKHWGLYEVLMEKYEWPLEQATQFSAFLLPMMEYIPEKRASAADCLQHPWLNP

MYO3A (human) = MYO3A (human) (UniProt Q8NEV4)
Sequence of MYO3A (human) (Q8NEV4 whole entry, looked up): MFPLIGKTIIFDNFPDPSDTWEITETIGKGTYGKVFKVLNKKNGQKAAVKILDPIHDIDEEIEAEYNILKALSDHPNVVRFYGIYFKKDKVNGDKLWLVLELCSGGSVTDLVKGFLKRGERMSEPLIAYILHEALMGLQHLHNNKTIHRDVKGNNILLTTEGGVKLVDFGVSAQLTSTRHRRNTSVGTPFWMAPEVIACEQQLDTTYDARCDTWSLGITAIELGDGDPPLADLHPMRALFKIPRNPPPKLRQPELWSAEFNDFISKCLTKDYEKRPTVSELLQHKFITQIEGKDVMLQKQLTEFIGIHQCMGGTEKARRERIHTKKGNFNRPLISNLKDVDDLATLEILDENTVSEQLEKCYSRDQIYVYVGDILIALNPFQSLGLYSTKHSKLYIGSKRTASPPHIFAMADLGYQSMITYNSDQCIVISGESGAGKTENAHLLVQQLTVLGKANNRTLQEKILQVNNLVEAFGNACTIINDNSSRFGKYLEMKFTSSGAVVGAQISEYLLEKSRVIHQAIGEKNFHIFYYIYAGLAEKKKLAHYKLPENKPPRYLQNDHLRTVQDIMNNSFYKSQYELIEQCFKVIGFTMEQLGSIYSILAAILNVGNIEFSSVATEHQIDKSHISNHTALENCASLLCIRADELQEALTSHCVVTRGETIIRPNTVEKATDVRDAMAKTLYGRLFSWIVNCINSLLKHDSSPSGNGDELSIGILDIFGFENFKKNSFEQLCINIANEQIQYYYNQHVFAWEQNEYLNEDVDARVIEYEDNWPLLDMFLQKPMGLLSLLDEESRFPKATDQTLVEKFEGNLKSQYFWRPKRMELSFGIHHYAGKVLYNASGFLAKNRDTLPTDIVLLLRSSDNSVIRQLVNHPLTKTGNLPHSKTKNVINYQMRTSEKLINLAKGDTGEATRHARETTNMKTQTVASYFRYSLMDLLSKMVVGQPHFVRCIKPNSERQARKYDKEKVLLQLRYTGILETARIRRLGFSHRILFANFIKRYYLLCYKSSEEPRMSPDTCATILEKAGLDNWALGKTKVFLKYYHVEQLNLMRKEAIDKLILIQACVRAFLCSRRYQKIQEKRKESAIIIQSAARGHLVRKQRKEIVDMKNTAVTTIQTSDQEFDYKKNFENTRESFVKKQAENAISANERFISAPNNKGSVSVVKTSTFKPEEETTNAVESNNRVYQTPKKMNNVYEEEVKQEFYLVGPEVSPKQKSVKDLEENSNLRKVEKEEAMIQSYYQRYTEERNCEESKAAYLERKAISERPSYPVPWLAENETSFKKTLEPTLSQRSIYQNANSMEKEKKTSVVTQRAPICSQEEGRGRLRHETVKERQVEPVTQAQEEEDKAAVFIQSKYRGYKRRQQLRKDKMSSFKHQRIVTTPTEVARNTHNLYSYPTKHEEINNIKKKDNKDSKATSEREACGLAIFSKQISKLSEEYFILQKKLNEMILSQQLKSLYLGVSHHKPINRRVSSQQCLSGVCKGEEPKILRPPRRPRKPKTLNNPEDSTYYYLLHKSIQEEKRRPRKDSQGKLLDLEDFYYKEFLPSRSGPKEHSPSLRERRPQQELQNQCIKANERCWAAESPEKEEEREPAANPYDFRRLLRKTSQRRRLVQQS

DDR1 (human) = DDR1 (human) (UniProt Q08345)
RAF1 (human) = RAF1 (human) (UniProt P04049)
Sequence of RAF1 (human) (P04049 whole entry, looked up): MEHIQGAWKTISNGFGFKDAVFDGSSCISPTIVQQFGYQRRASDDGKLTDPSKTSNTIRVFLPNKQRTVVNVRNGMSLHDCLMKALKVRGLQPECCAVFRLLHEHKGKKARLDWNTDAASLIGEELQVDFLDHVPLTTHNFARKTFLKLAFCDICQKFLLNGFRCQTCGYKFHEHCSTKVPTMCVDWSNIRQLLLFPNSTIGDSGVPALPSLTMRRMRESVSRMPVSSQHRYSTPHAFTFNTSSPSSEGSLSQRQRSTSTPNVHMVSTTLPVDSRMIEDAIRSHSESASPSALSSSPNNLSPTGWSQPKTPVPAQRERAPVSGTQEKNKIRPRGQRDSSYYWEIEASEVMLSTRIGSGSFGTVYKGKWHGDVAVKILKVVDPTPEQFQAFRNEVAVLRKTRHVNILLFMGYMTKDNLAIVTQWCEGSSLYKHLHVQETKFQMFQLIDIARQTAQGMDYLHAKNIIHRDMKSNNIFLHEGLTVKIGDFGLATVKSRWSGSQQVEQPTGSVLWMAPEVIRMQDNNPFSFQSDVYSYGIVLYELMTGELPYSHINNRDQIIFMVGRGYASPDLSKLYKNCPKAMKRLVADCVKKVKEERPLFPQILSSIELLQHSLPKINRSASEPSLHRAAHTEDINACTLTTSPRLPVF

STK24 (human) = STK24 (human) (UniProt Q9Y6E0)
KIT (human) = KIT (human) (UniProt P10721)
Sequence of KIT (human) (P10721 whole entry, looked up): as the sequence (P10721 whole entry A829P, looked up) above, with P829A counted along it

CAMKK2 (human) = CAMKK2 (human) (UniProt Q96RR4)
Sequence of CAMKK2 (human) (Q96RR4 whole entry, looked up): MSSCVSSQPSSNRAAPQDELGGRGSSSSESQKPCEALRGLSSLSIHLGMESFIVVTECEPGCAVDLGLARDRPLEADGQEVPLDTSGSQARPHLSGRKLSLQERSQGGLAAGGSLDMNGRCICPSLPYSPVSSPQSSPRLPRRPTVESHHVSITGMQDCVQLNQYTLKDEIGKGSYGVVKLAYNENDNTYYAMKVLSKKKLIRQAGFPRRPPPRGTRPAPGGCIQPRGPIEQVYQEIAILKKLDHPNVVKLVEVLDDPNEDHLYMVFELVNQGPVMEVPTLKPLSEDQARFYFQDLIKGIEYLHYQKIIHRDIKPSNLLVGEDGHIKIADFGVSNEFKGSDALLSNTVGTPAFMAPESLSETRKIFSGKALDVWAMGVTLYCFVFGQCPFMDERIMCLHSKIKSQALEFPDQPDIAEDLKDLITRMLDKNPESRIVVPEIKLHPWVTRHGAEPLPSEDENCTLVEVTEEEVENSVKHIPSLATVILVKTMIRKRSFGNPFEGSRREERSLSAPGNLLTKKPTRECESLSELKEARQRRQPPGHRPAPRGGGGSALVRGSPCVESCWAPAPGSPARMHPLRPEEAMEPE

RPS6KA1 KD1 (human) = RPS6KA1 KD1 (human) (UniProt Q15418)
TAOK3 (human) = TAOK3 (human) (UniProt Q9H2K8)
TSSK1B (human) = TSSK1B (human) (UniProt Q9BXA7)
LIMK2 (human) = LIMK2 (human) (UniProt P53671)
Sequence of LIMK2 (human) (P53671 whole entry, looked up): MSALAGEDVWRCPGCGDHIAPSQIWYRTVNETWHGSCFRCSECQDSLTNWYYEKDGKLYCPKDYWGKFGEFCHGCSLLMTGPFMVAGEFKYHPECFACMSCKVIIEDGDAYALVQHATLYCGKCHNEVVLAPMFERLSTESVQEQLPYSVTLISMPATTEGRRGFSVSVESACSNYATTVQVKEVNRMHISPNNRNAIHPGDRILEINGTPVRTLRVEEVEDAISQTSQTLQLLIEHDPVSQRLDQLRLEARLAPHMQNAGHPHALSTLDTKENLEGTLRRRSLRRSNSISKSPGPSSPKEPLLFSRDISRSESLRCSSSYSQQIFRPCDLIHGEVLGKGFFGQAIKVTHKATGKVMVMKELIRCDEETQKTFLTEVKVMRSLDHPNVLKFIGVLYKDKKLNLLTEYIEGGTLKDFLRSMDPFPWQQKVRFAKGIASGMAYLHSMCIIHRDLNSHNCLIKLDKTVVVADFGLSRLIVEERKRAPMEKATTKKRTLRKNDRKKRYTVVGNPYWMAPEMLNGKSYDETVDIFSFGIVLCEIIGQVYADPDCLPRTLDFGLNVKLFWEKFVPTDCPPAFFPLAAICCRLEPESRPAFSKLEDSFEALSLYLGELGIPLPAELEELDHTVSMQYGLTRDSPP

NTRK3 (human) = NTRK3 (human) (UniProt Q16288)
DAPK1 (human) = DAPK1 (human) (UniProt P53355)
EPHB3 (human) = EPHB3 (human) (UniProt P54753)
PRKD1 (human) = PRKD1 (human) (UniProt Q15139)

Structure (SMILES)	kinase still bound, per cent of control (ROS1 (human)) [%]	kinase still bound, per cent of control (CSNK1E (human)) [%]	kinase still bound, per cent of control (BLK (human)) [%]	kinase still bound, per cent of control (MAPK3 (human)) [%]	kinase still bound, per cent of control (ULK1 (human)) [%]	kinase still bound, per cent of control (CDKL2 (human)) [%]	kinase still bound, per cent of control (YES1 (human)) [%]	kinase still bound, per cent of control (CDK19 (human)) [%]	kinase still bound, per cent of control (PIK3CG (human)) [%]	kinase still bound, per cent of control (SNRK (human)) [%]	kinase still bound, per cent of control (STK38 (human)) [%]	kinase still bound, per cent of control (CDK5 (human)) [%]	kinase still bound, per cent of control (PTK6 (human)) [%]	kinase still bound, per cent of control (FLT1 (human)) [%]	kinase still bound, per cent of control [3] [%]	kinase still bound, per cent of control (KDR (human)) [%]	kinase still bound, per cent of control (STK17A (human)) [%]	kinase still bound, per cent of control (TNIK (human)) [%]	kinase still bound, per cent of control (CDK3 (human)) [%]	kinase still bound, per cent of control (INSR (human)) [%]	also measured
CC1=C(C(=O)Nc2cc3cn[nH]c3cc2F)C(c2ccc(C(F)(F)F)cc2)CC(=O)N1 (configuration not stated)	100	79	12	53	74	94	65	80	88	100	19	80	60	77	58	88	95	100	77	96	kinase still bound, per cent of control [1]: 36%; kinase still bound, per cent of control [2]: 74%; kinase still bound, per cent of control (MTOR (human)): 89%; kinase still bound, per cent of control (AXL (human)): 84%; kinase still bound, per cent of control (PIP4K2C (human)): 98%; kinase still bound, per cent of control (SRPK3 (human)): 98%; kinase still bound, per cent of control (MYO3A (human)): 85%; kinase still bound, per cent of control (DDR1 (human)): 100%; kinase still bound, per cent of control (RAF1 (human)): 100%; kinase still bound, per cent of control (STK24 (human)): 52%; kinase still bound, per cent of control (KIT (human)): 90%; kinase still bound, per cent of control (CAMKK2 (human)): 55%; kinase still bound, per cent of control (RPS6KA1 KD1 (human)): 72%; kinase still bound, per cent of control (TAOK3 (human)): 96%; kinase still bound, per cent of control (TSSK1B (human)): 98%; kinase still bound, per cent of control (LIMK2 (human)): 89%; kinase still bound, per cent of control (NTRK3 (human)): 100%; kinase still bound, per cent of control (DAPK1 (human)): 81%; kinase still bound, per cent of control (EPHB3 (human)): 84%; kinase still bound, per cent of control (PRKD1 (human)): 76%
N#C/C(=C1/Nc2ccccc2S1)c1ccnc(NCCc2cccnc2)n1	100	60	100	100	36	98	81	100	50	2.7	91	100	59	100	73	100	100	70	100	92	kinase still bound, per cent of control [2]: 53%; kinase still bound, per cent of control (MTOR (human)): 34%; kinase still bound, per cent of control (AXL (human)): 100%; kinase still bound, per cent of control (PIP4K2C (human)): 3.7%; kinase still bound, per cent of control (SRPK3 (human)): 23%; kinase still bound, per cent of control (MYO3A (human)): 80%; kinase still bound, per cent of control (DDR1 (human)): 100%; kinase still bound, per cent of control (RAF1 (human)): 100%; kinase still bound, per cent of control (STK24 (human)): 80%; kinase still bound, per cent of control (KIT (human)): 31%; kinase still bound, per cent of control (CAMKK2 (human)): 54%; kinase still bound, per cent of control (RPS6KA1 KD1 (human)): 83%; kinase still bound, per cent of control (TAOK3 (human)): 24%; kinase still bound, per cent of control (TSSK1B (human)): 100%; kinase still bound, per cent of control (LIMK2 (human)): 96%; kinase still bound, per cent of control (NTRK3 (human)): 69%; kinase still bound, per cent of control (DAPK1 (human)): 32%; kinase still bound, per cent of control (EPHB3 (human)): 100%; kinase still bound, per cent of control (PRKD1 (human)): 100%
CCN(CCO)CCCOc1ccc2c(Nc3cc(CC(=O)Nc4cccc(F)c4)[nH]n3)ncnc2c1	100	100	9.6	100	76	18	42	100	100	100	56	100	72	1	50	2.7	46	52	95	75	kinase still bound, per cent of control (MTOR (human)): 100%; kinase still bound, per cent of control (AXL (human)): 1.4%; kinase still bound, per cent of control (PIP4K2C (human)): 51%; kinase still bound, per cent of control (SRPK3 (human)): 100%; kinase still bound, per cent of control (MYO3A (human)): 81%; kinase still bound, per cent of control (DDR1 (human)): 12%; kinase still bound, per cent of control (RAF1 (human)): 100%; kinase still bound, per cent of control (STK24 (human)): 43%; kinase still bound, per cent of control (KIT (human)): 0%; kinase still bound, per cent of control (CAMKK2 (human)): 100%; kinase still bound, per cent of control (RPS6KA1 KD1 (human)): 83%; kinase still bound, per cent of control (TAOK3 (human)): 100%; kinase still bound, per cent of control (TSSK1B (human)): 87%; kinase still bound, per cent of control (LIMK2 (human)): 100%; kinase still bound, per cent of control (NTRK3 (human)): 56%; kinase still bound, per cent of control (DAPK1 (human)): 80%; kinase still bound, per cent of control (EPHB3 (human)): 100%; kinase still bound, per cent of control (PRKD1 (human)): 72%
